In US10883087B2, “Uricase sequences and methods of treatment” (MedImmune, LLC, priority 2015, dated 2021):

Columns and labels:
Assay in all cases: Substrate depletion assay (UA)
[1] = molecular target: T1, Arthrobacter globiformis uricase, wt, SEQ ID NO: 27 (amino terminal His tag) (Arthrobacter globiformis, UniProt D0VWQ1); type: biochemical
T1 sequence (D0VWQ1 1-302): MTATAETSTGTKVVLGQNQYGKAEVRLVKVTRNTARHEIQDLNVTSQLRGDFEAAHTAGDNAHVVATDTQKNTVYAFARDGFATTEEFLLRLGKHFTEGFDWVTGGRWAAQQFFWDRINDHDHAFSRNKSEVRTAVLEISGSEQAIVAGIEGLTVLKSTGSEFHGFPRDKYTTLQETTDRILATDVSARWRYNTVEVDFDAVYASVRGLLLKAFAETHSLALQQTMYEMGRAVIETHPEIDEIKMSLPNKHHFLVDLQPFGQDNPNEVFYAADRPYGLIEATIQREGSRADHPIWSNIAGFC
Procedure: (§1) An initial screening paradigm was used to identify candidates for further optimization. The 8 uricase sequences described in Example 1 were cloned with an amino terminal His tag and expressed in E. coli. Each uricase construct was evaluated for expression level and in particular, soluble expression. Uricase expressing E. coli were lysed and soluble material was separated from insoluble (pellet) material. The lysates were separated by SDS-PAGE and the proteins were visualized by Coomassie blue staining. […] The pig-baboon chimera appears to express almost entirely in the pellet (P) (insoluble) fraction (FIG. 1, Lane 9). Cytosolic soluble (S) expression was considered a favorable property. […] Protein yield was determined by measuring the absorbance at 280 nm. […]
(§2) Five uricases (SEQ ID NOs: 27, 28, 29, 32, and 34) were evaluated for neutral pH solubility characteristics and activity in terms of product formation (H2O2) at pH 9.0 and 7.4. […] The appearance of hydrogen peroxide can be measured by an increase in absorbance at 540 nm. […]
(§3) Substrate depletion (UA) is another common method for assessing uricase activity. […] The Molecular Devices reader temperature was set to the 30° C. Absorbance measurements at 292 nm were captured every 20 seconds for a period of 10 minutes. The rate of UA degradation was calculated by SoftMax Pro software. Vmax and Km were calculated for these uricases (see Table 5 below). […]

[2] = tested on: Consensus uricase, SEQ ID NO: 34 (amino terminal His tag); type: biochemical; details: PB, pH 7.4, typically 30° C.; UA 23.8-400 μM; 292 nm
Excerpt: After this process, the following 7 candidate sequences were chosen for further investigation: Arthrobacter globiformis uricase (SEQ ID NO: 27), Deinococcus geothermalis uricase (SEQ ID NO: 28), Deinococcus radiodurans uricase (SEQ ID NO: 29), Granulicella tundricola uricase (SEQ ID NO: 30), Solibacter usitatus uricase (SEQ ID NO: 31), Terriglobus saanensis uricase (SEQ ID NO: 32) and Kyrpidia tusciae uricase (SEQ ID NO: 33). Additionally, as an 8th sequence, a consensus uricase sequence was also devised from the alignment of many uricase sequences. The consensus sequence is represented by SEQ ID NO: 34.
An initial screening paradigm was used to identify candidates for further optimization. […] Each uricase construct was evaluated for expression level and in particular, soluble expression. […] Protein yield was determined by measuring the absorbance at 280 nm. […]
as §2
Substrate depletion (UA) is another common method for assessing uricase activity. […] The Molecular Devices reader temperature was set to the 30° C. Absorbance measurements at 292 nm were captured every 20 seconds for a period of 10 minutes. […]

[3] = tested on: Krystexxa (pegloticase), PEGylated chimeric pig/baboon uricase; type: biochemical, pig and baboon (chimera); details: PB, pH 7.4, typically 30° C.; UA 23.8-400 μM; 292 nm
Procedure: Five uricases (SEQ ID NOs: 27, 28, 29, 32, and 34) were evaluated for neutral pH solubility characteristics and activity in terms of product formation (H2O2) at pH 9.0 and 7.4. In the product formation assay, allantoin formation is proportional to H2O2 formation, which is linked to colorimetric horseradish peroxidase-catalyzed, colorimetric reaction. The appearance of hydrogen peroxide can be measured by an increase in absorbance at 540 nm. Product formation assays were proportional to substrate depletion assays in terms of uricase activity. […] The substrate depletion assays were much better for assessing kinetic parameters like Vmax and Km.
Substrate depletion (UA) is another common method for assessing uricase activity. In the substrate depletion assay, uricase, UA, and phosphate buffer were incubated for 1 hour at the stated temperature (typically 30° C.). Uricase was then diluted to 1 μg/mL and combined with a curve of UA (400 μM diluted down 1:1.6 to 23.8 μM) in 0.1M phosphate buffer (PB), pH 7.4. In some assays 1 mM DTT was added to the assay. The Molecular Devices reader temperature was set to the 30° C. Absorbance measurements at 292 nm were captured every 20 seconds for a period of 10 minutes. The rate of UA degradation was calculated by SoftMax Pro software. Vmax and Km were calculated for these uricases (see Table 5 below). […]

[4] = molecular target: Deinococcus geothermalis uricase, SEQ ID NO: 28 (amino terminal His tag) (Deinococcus geothermalis, UniProt Q1J399); type: biochemical
Procedure: (§4) Substrate depletion (UA) is another common method for assessing uricase activity. In the substrate depletion assay, uricase, UA, and phosphate buffer were incubated for 1 hour at the stated temperature (typically 30° C.). […] In some assays 1 mM DTT was added to the assay. The Molecular Devices reader temperature was set to the 30° C. Absorbance measurements at 292 nm were captured every 20 seconds for a period of 10 minutes. The rate of UA degradation was calculated by SoftMax Pro software. Vmax and Km were calculated for these uricases (see Table 5 below).

[5] = tested on: O=c1[nH]c(=O)c2[nH]c(=O)[nH]c2[nH]1; type: biochemical, Deinococcus geothermalis; details: other: PB, pH 7.4, typically 30° C., UA 23.8-400 μM, 292 nm
Procedure: as §4

[6] = substrate: O=c1[nH]c(=O)c2[nH]c(=O)[nH]c2[nH]1; type: biochemical, Terriglobus saanensis; details: other: PB, pH 7.4, typically 30° C., UA 23.8-400 μM, 292 nm
Procedure: as §1, §2, §3

[7] = substrate: O=c1[nH]c(=O)c2[nH]c(=O)[nH]c2[nH]1; type: biochemical, Deinococcus radiodurans; details: other: PB, pH 7.4, typically 30° C., UA 23.8-400 μM, 292 nm
Procedure: as §1, §2, §3

[8] = substrate: O=c1[nH]c(=O)c2[nH]c(=O)[nH]c2[nH]1; type: biochemical, Arthrobacter globiformis
Procedure: as §1, §2, §3

## O=c1[nH]c(=O)c2[nH]c(=O)[nH]c2[nH]1 [UA, uric acid]
[1]; ratio to Krystexxa
  better kcat/Km relative to Krystexxa: ~2 fold
[1]; ratio to Krystexxa (55.7 versus 116.3)
  better Km relative to Krystexxa: 2 fold
[2]
  Km: 31.8 µM
[3]
  Km: 116 µM
  Vmax: 5.7
[4]; compared with Krystexxa
  Vmax: 10.8
[4]; ratio to Krystexxa
  better kcat/Km relative to Krystexxa: ~2 fold
[4]; ratio to Krystexxa (10.8 versus 5.7)
  improved Vmax relative to Krystexxa: 2 fold

## Deinococcus geothermalis uricase, SEQ ID NO: 28 (amino terminal His tag) (Deinococcus geothermalis DSM 11300)
[5]
  Km: 55.7 µM

B1: Terriglobus saanensis uricase, SEQ ID NO: 32 (amino terminal His tag) (Terriglobus saanensis SP1PR4) (protein)
chain: MAKLIDSRYGKARVRVMKLDRSQPQHQLLEWTVRVLLEGDFETAHTVGDNSNILPTDTMKNTVYSRAKESKAETPEEFAIELAEFLLGRNPQVHTVEVKIETAMWKRLVVDGKPHGSSFMRGSDELGTVLHHATRETKTMVCGVENMVILKSQNSSFEGYIQDDLTTLKPTADRLFATAMTADWDYTDGGSAFAARREAIREAMLKAFAEHDSKSVQQTLYAMAEAAMAAVPAVNRVHMVMPNKHCLLVDLKHFGQENNNEIFVPTEDPHGYIEATVVRE
[6]
  Km: 76.2 µM

B2: Deinococcus radiodurans uricase, SEQ ID NO: 29 (amino terminal His tag) (Deinococcus radiodurans R1 = ATCC 13939 = DSM 20539) (protein)
chain: MMTGTQQPGTQPKVKVRLGENNYGKAEVQLMKIKRGTPRHELREAKVRVAMYGDFGAAHSEGDNTDLVATDTVRNTVYGLAKEGFESSIEEFGKELLTHFVKVGPRVTGGFAEFTEHLWERVQTPAQPQGHDHAFVRQMPKRTARVETQDGRRFTVTSGIEELYVLKTTESGWENYLLDERFTTLPETHDRVMATFVTAKWEYAVESCDYDAVWERVYRQIQHTFTDHYSPSLQRTLYLMGEAVLSVCPEISRIWFQMPNKHHLVYNLGRFGLENNNEILHVDPEPYGLMEAWVERAE
[7]
  Km: 83.1 µM

B3: Arthrobacter globiformis uricase, wt, SEQ ID NO: 27 (amino terminal His tag) (Arthrobacter globiformis) (protein)
chain: T1 sequence (D0VWQ1 1-302)
[8]; other: PB, pH 7.4, typically 30° C., UA 23.8-400 μM, 292 nm, pH 7.4
  Km: 110 µM
[8]; other: restated in text, compared with Krystexxa, 30.0 °C
  Km: 55.7 µM
